Values belong to the compound of their own block, whether it stands above or below them.
Key:
[1] = Drug level in human RBC assessed as concentration of Lamivudine triphosphate per 10^6 cells; assay type: ADME, cell-based; settings: erythrocyte
PBMC [2] = assay: Drug level in human PBMC assessed as concentration of Lamivudine triphosphate per 10^6 cells; assay type: ADME, cell-based
[3] = Ratio of drug level in human RBC to human PBMC assessed as concentration of Lamivudine triphosphate; assay type: ADME; settings: erythrocytes
[4] = Drug level in human RBC assessed as concentration of Lamivudine triphosphate per 10^6 cells after 0.3 hrs; assay type: ADME, cell-based; settings: erythrocyte
PBMC [5] = assay: Drug level in human PBMC assessed as concentration of Lamivudine triphosphate per 10^6 cells after 0.3 hrs; assay type: ADME, cell-based
[6] = Ratio of drug level in human RBC to human PBMC assessed as concentration of Lamivudine triphosphate after 0.3 hrs; assay type: ADME; settings: erythrocytes
PBMC [7] = assay: Drug level in human PBMC assessed as concentration of tenofovir diphosphate per 10^6 cells after 14.3 hrs; assay type: ADME, cell-based
[8] = Drug level in human RBC assessed as concentration of tenofovir diphosphate per 10^6 cells after 13.5 hrs; assay type: ADME, cell-based; settings: erythrocyte
PBMC [9] = assay: Drug level in human PBMC assessed as concentration of tenofovir diphosphate per 10^6 cells after 13.9 hrs; assay type: ADME, cell-based
PBMC [10] = assay: Ratio of drug level in non-lysed human PBMC to RBC lysed human PBMC assessed as concentration of tenofovir diphosphate after 9.5 hrs; assay type: ADME, cell-based
PBMC [11] = assay: Drug level in human PBMC assessed as concentration of tenofovir diphosphate per 10^6 cells after 11.9 hrs; assay type: ADME, cell-based
[12] = Drug level in human RBC assessed as concentration of tenofovir diphosphate per 10^6 cells after 14.3 hrs; assay type: ADME, cell-based; settings: erythrocyte
[13] = Drug level in human RBC assessed as concentration of tenofovir diphosphate per 10^6 cells after 13.3 hrs; assay type: ADME, cell-based; settings: erythrocyte
PBMC [14] = assay: Drug level in human PBMC assessed as concentration of tenofovir diphosphate per 10^6 cells after 13.5 hrs; assay type: ADME, cell-based
[15] = Drug level in human RBC assessed as concentration of tenofovir diphosphate per 10^6 cells after 0.8 hrs; assay type: ADME, cell-based; settings: erythrocyte
[16] = Ratio of drug level in human RBC to human PBMC assessed as concentration of Lamivudine triphosphate after 14.3 hrs; assay type: ADME; settings: erythrocytes
[17] = Ratio of drug level in human RBC to human PBMC assessed as concentration of Lamivudine triphosphate after 11.9 hrs; assay type: ADME; settings: erythrocytes
PBMC [18] = assay: Drug level in non-lysed human PBMC assessed as concentration of tenofovir diphosphate after 2 hrs; assay type: ADME, cell-based
[19] = Ratio of drug level in human RBC to human PBMC assessed as concentration of Lamivudine triphosphate after 0.8 hrs; assay type: ADME; settings: erythrocytes
PBMC [20] = assay: Drug level in RBC lysed human PBMC assessed as concentration of tenofovir diphosphate after 2 hrs; assay type: ADME, cell-based
PBMC [21] = assay: Ratio of drug level in non-lysed human PBMC to RBC lysed human PBMC assessed as concentration of tenofovir diphosphate after 2 hrs; assay type: ADME, cell-based
PBMC [22] = assay: Drug level in non-lysed human PBMC assessed as concentration of tenofovir diphosphate after 9.5 hrs; assay type: ADME, cell-based
[23] = Ratio of drug level in human RBC to human PBMC assessed as concentration of Lamivudine triphosphate after 13.3 hrs; assay type: ADME; settings: erythrocytes
PBMC [24] = assay: Drug level in RBC lysed human PBMC assessed as concentration of tenofovir diphosphate after 9.5 hrs; assay type: ADME, cell-based
[25] = Ratio of drug level in human RBC to human PBMC assessed as concentration of lamivudin triphosphate after 13.5 hrs; assay type: ADME; settings: erythrocytes
[26] = Drug level in human RBC assessed as concentration of tenofovir diphosphate per 10^6 cells after 11.9 hrs; assay type: ADME, cell-based; settings: erythrocyte
PBMC [27] = assay: Drug level in human PBMC assessed as concentration of tenofovir diphosphate per 10^6 cells after 0.8 hrs; assay type: ADME, cell-based

Drug uptake [1]: 0.04 pmol | Drug uptake (PBMC [2]): 11.1 pmol | Ratio [3]: 0.004 | Drug uptake [4]: 0.09 pmol | Drug uptake (PBMC [5]): 10.5 pmol | Ratio [6]: 0.009
SMILES: Nc1ccn([C@@H]2CS[C@H](CO)O2)c(=O)n1 (single isomer, unassigned) [LAMIVUDINE]

SMILES: CC(C)OC(=O)OCOP(=O)(CO[C@H](C)Cn1cnc2c(N)ncnc21)OCOC(=O)OC(C)C.O=C(O)/C=C/C(=O)O [TENOFOVIR DISOPROXIL FUMARATE]
Drug uptake (PBMC [7]): 95.5 fmol | Drug uptake [8]: 245 fmol | Drug uptake (PBMC [9]): 148 fmol | Ratio (PBMC [10]): 7.05 | Drug uptake (PBMC [11]): 131 fmol | Drug uptake [12]: 73.3 fmol | Drug uptake [13]: 165 fmol | Drug uptake (PBMC [14]): 202 fmol | Drug uptake [15]: 443 fmol | Ratio [16]: 0.8 | Ratio [17]: 1.1 | Drug uptake (PBMC [18]): 302.6 fmol | Ratio [19]: 2 | Drug uptake (PBMC [20]): 376.6 fmol | Ratio (PBMC [21]): 0.8 | Drug uptake (PBMC [22]): 1287 fmol | Ratio [23]: 1.1 | Drug uptake (PBMC [24]): 182.5 fmol | Ratio [25]: 1.2 | Drug uptake [26]: 143 fmol | Drug uptake (PBMC [27]): 226 fmol

From ChEMBL document CHEMBL1145487, “Evidence and possible consequences of the phosphorylation of nucleoside reverse transcriptase inhibitors in human red blood cells” (Antimicrob Agents Chemother, 2007)
